Test results published in PubChem BioAssay AID1919004 (Molecular Pharmacology Branch, DTP, NCI, 2023).

Test system: 883617-216-R-J1-PDC complex spheroids, growth, % test/control
Test: Anticancer human tumor 883617-216-R-J1-PDC patient-derived bladder carcinoma cell line growth inhibition [AhR]
Conditions: for IC50: curve of first compound; for viability, T/C: stronger effect = lower value
Outline: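 Spheroids combined tumor cells with HUVEC endothelial cells and human MSCs as stroma. AhR antagonists were paired with standard or investigational drugs, each dosed in half-log steps down from near clinical Cmax, or from 10 microM where Cmax was unknown.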

[1] = second compound 0.1 µM, first compound 0.0316 µM
[2] = second compound 0.1 µM, first compound 0.1 µM
[3] = second compound 0.1 µM, first compound 0.316 µM
[4] = second compound 0.1 µM, first compound 1 µM
[5] = second compound 0.1 µM, first compound 3.16 µM
[6] = second compound 0.1 µM, first compound 10 µM
[7] = second compound 0.316 µM, first compound 0.0316 µM
[8] = second compound 0.316 µM, first compound 0.1 µM
[9] = second compound 0.316 µM, first compound 0.316 µM
[10] = second compound 0.316 µM, first compound 1 µM
[11] = second compound 0.316 µM, first compound 3.16 µM
[12] = second compound 0.316 µM, first compound 10 µM
[13] = second compound 1 µM, first compound 0.0316 µM
[14] = second compound 1 µM, first compound 0.1 µM
[15] = second compound 1 µM, first compound 0.316 µM
[16] = second compound 1 µM, first compound 1 µM
[17] = second compound 1 µM, first compound 3.16 µM
[18] = second compound 1 µM, first compound 10 µM
[19] = second compound 3.16 µM, first compound 0.0316 µM
[20] = second compound 3.16 µM, first compound 0.1 µM
[21] = second compound 3.16 µM, first compound 0.316 µM
[22] = second compound 3.16 µM, first compound 1 µM
[23] = second compound 3.16 µM, first compound 3.16 µM
[24] = second compound 3.16 µM, first compound 10 µM
[25] = second compound 10 µM, first compound 0.0316 µM
[26] = second compound 10 µM, first compound 0.1 µM
[27] = second compound 10 µM, first compound 0.316 µM
[28] = second compound 10 µM, first compound 1 µM
[29] = second compound 10 µM, first compound 3.16 µM
[30] = second compound 10 µM, first compound 10 µM
[31] = second compound 0.1 µM, first compound 0.000949 µM
[32] = second compound 0.1 µM, first compound 0.003 µM
[33] = second compound 0.1 µM, first compound 0.00949 µM
[34] = second compound 0.1 µM, first compound 0.03 µM
[35] = second compound 0.1 µM, first compound 0.0949 µM
[36] = second compound 0.1 µM, first compound 0.3 µM
[37] = second compound 0.316 µM, first compound 0.000949 µM
[38] = second compound 0.316 µM, first compound 0.003 µM
[39] = second compound 0.316 µM, first compound 0.00949 µM
[40] = second compound 0.316 µM, first compound 0.03 µM
[41] = second compound 0.316 µM, first compound 0.0949 µM
[42] = second compound 0.316 µM, first compound 0.3 µM
[43] = second compound 1 µM, first compound 0.000949 µM
[44] = second compound 1 µM, first compound 0.003 µM
[45] = second compound 1 µM, first compound 0.00949 µM
[46] = second compound 1 µM, first compound 0.03 µM
[47] = second compound 1 µM, first compound 0.0949 µM
[48] = second compound 1 µM, first compound 0.3 µM
[49] = second compound 3.16 µM, first compound 0.000949 µM
[50] = second compound 3.16 µM, first compound 0.003 µM
[51] = second compound 3.16 µM, first compound 0.00949 µM
[52] = second compound 3.16 µM, first compound 0.03 µM
[53] = second compound 3.16 µM, first compound 0.0949 µM
[54] = second compound 3.16 µM, first compound 0.3 µM
[55] = second compound 10 µM, first compound 0.000949 µM
[56] = second compound 10 µM, first compound 0.003 µM
[57] = second compound 10 µM, first compound 0.00949 µM
[58] = second compound 10 µM, first compound 0.03 µM
[59] = second compound 10 µM, first compound 0.0949 µM
[60] = second compound 10 µM, first compound 0.3 µM
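Also: exposure lasted 7 days after dosing on day 3 of spheroid growth.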

In the case of `COc1ccc([C@@H](O)c2cc(-c3ncnc4cc(N5CCOCC5)ccc34)c(F)cc2Cl)nn1` + Cc1ccccc1N=Nc1ccc(NC(=O)c2ccnn2C)c(C)c1, the IC50 (second compound 0.1 µM) is reported as 3450 nM, the IC50 (second compound 0.316 µM) is reported as 2300 nM and the IC50 (second compound 1 µM) is reported as 2420 nM. For the same molecule, the IC50 (second compound 3.16 µM) was 1780 nM, the IC50 (second compound 10 µM) was 1690 nM and the viability, T/C [1] was 97.8%. For the same molecule, the viability, T/C [2] was 91.4%, the viability, T/C [3] was 81.3% and the viability, T/C [4] was 67.8%. For the same molecule, the viability, T/C [5] was 51.4%, the viability, T/C [6] was 33.8% and the viability, T/C [7] was 83.7%. It also gave a viability, T/C [8] of 84.9%, a viability, T/C [9] of 78.3% and a viability, T/C [10] of 61.4%. The viability, T/C [11] was 46.4%, the viability, T/C [12] was 33.9% and the viability, T/C [13] was 91.1%. The viability, T/C [14] was 80.7%, the viability, T/C [15] was 72.8% and the viability, T/C [16] was 60.2%. The viability, T/C [17] was 47.2%, the viability, T/C [18] was 32.6% and the viability, T/C [19] was 76.8%. For the same molecule, the viability, T/C [20] was 80%, the viability, T/C [21] was 76.1% and the viability, T/C [22] was 58.2%. It also gave a viability, T/C [23] of 41.9%, a viability, T/C [24] of 32.9% and a viability, T/C [25] of 75.4%. The viability, T/C [26] was 74.2%, the viability, T/C [27] was 64.5% and the viability, T/C [28] was 57.3%. The viability, T/C [29] was 42.3% and the viability, T/C [30] was 34.2%.
`CC1COCCN1c1cc(C2(S(C)(=N)=O)CC2)nc(-c2ccnc3[nH]ccc23)n1` (stereo not given) + CC(CO)NC(=O)c1cc(-c2ccc(Cl)cc2)nn(-c2cnn(C)c2)c1=O was tested, and the IC50 (second compound 0.1 µM) was greater than 10000 nM, the IC50 (second compound 0.316 µM) was greater than 10000 nM and the IC50 (second compound 1 µM) was greater than 10000 nM. The IC50 (second compound 3.16 µM) was greater than 10000 nM, the IC50 (second compound 10 µM) was greater than 10000 nM and the viability, T/C [1] was 155%. It also gave a viability, T/C [2] of 133%, a viability, T/C [3] of 120% and a viability, T/C [4] of 78.7%. The viability, T/C [5] was 86.9%, the viability, T/C [6] was 108% and the viability, T/C [7] was 73.3%. The viability, T/C [8] was 143%, the viability, T/C [9] was 107% and the viability, T/C [10] was 56.3%. For the same molecule, the viability, T/C [11] was 70.1%, the viability, T/C [12] was 72.1% and the viability, T/C [13] was 142%. It also gave a viability, T/C [14] of 102%, a viability, T/C [15] of 152% and a viability, T/C [16] of 121%. It also gave a viability, T/C [17] of 103%, a viability, T/C [18] of 77.5% and a viability, T/C [19] of 103%. The viability, T/C [20] was 94.4%, the viability, T/C [21] was 132% and the viability, T/C [22] was 132%. For the same molecule, the viability, T/C [23] was 86.2%, the viability, T/C [24] was 66.5% and the viability, T/C [25] was 127%. For the same molecule, the viability, T/C [26] was 101%, the viability, T/C [27] was 125% and the viability, T/C [28] was 153%. It also gave a viability, T/C [29] of 107% and a viability, T/C [30] of 114%.
`Nc1ncn(C2CC(O)C(CO)S2)c(=O)n1` (stereo not given) + Cc1ccccc1N=Nc1ccc(NC(=O)c2ccnn2C)c(C)c1 gave an IC50 (second compound 0.1 µM) greater than 300 nM, an IC50 (second compound 0.316 µM) greater than 300 nM and an IC50 (second compound 1 µM) greater than 300 nM. The IC50 (second compound 3.16 µM) was greater than 300 nM, the IC50 (second compound 10 µM) was greater than 300 nM and the viability, T/C [31] was 98.4%. It also gave a viability, T/C [32] of 90.2%, a viability, T/C [33] of 88.8% and a viability, T/C [34] of 88.7%. For the same molecule, the viability, T/C [35] was 87.3%, the viability, T/C [36] was 75.8% and the viability, T/C [37] was 83.9%. For the same molecule, the viability, T/C [38] was 93.8%, the viability, T/C [39] was 83.5% and the viability, T/C [40] was 81.2%. For the same molecule, the viability, T/C [41] was 84.6%, the viability, T/C [42] was 75.5% and the viability, T/C [43] was 84.3%. The viability, T/C [44] was 84.2%, the viability, T/C [45] was 99.2% and the viability, T/C [46] was 80.3%. For the same molecule, the viability, T/C [47] was 76.1%, the viability, T/C [48] was 80.7% and the viability, T/C [49] was 81.7%. For the same molecule, the viability, T/C [50] was 87.9%, the viability, T/C [51] was 85% and the viability, T/C [52] was 73.3%. It also gave a viability, T/C [53] of 86.4%, a viability, T/C [54] of 78.7% and a viability, T/C [55] of 73.8%. For the same molecule, the viability, T/C [56] was 68.5%, the viability, T/C [57] was 76.3% and the viability, T/C [58] was 79.2%. For the same molecule, the viability, T/C [59] was 76.9% and the viability, T/C [60] was 83.4%.
`CC(C)CC(NC(=O)C(Cc1ccccc1)NC(=O)c1cnccn1)B(O)O` (stereo not given) + Cc1ccccc1N=Nc1ccc(NC(=O)c2ccnn2C)c(C)c1 showed an IC50 (second compound 0.1 µM) of 7.48 nM, an IC50 (second compound 0.316 µM) of 7.89 nM and an IC50 (second compound 1 µM) of 7.56 nM. The IC50 (second compound 3.16 µM) was 7.93 nM, the IC50 (second compound 10 µM) was 9.89 nM and the viability, T/C [31] was 85.9%. It also gave a viability, T/C [32] of 97.5%, a viability, T/C [33] of 39.1% and a viability, T/C [34] of 0.08%. It also gave a viability, T/C [35] of 0.03%, a viability, T/C [36] of 0.11% and a viability, T/C [37] of 90.5%. It also gave a viability, T/C [38] of 92.7%, a viability, T/C [39] of 42.1% and a viability, T/C [40] of 0.06%. The viability, T/C [41] was 0.05%, the viability, T/C [42] was 0.11% and the viability, T/C [43] was 84.8%. It also gave a viability, T/C [44] of 89.4%, a viability, T/C [45] of 40.9% and a viability, T/C [46] of 0.08%. It also gave a viability, T/C [47] of 0.03%, a viability, T/C [48] of 0.1% and a viability, T/C [49] of 79.4%. It also gave a viability, T/C [50] of 88.2%, a viability, T/C [51] of 43.8% and a viability, T/C [52] of 0.11%. The viability, T/C [53] was 2.06%, the viability, T/C [54] was 0.76% and the viability, T/C [55] was 78%. For the same molecule, the viability, T/C [56] was 80.8%, the viability, T/C [57] was 51.9% and the viability, T/C [58] was 0.17%. It also gave a viability, T/C [59] of 0.62% and a viability, T/C [60] of 0.21%.
